Measurements from US20070053841A1, “USE OF 1,1,1,2-TETRAFLUOROETHANE FOR MEASURING LUNG FUNCTION, ESPECIALLY FOR DETERMINING THE FUNCTIONAL RESIDUAL CAPACITY (FRC) OF THE LUNGS” (Drager Medical AG & Co. KG, priority 2005, published 2007).

Test: blood-gas partition coefficient L (solubility of the gas in the blood)
Assay type: physicochemical
Details: gas 1 = R 134a, gas 2 = R 227; equilibrium between gas dissolved in blood and gas phase
Method: The solubility of gases in the blood can be described by the blood-gas partition coefficient L, which describes the ratio of the volume percentages between gas dissolved in the blood and gas present in the gas phase. The prerequisite for this is the presence of an equilibrium with identical partial pressures of the gas in the phase in which it is dissolved in the blood and in the gas phase. Lowest possible solubility of the tracer gas in the blood is desirable for the lung function diagnostic tests and especially for the determination of the FRC, because what we wish to ultimately determine is the lung volume rather than the quantity of blood in the body. By using at least two gases with different solubilities in blood, the FRC measurement can be corrected with respect to the solubility in blood. The subscripts 1 and 2 below designate the two gases, which may stand, e.g., for R 134a and R 227. It can be assumed below, without restricting the generality, that L1>L2, so that the FRC measured with gas 1 (for example, R 134a) will be greater than that determined with gas 2 (for example, R 227). The blood volume can be determined from the difference of the FRC values: [formula] […] In case of R 134a and R 227, the coefficient L1/L2 is approx. 4, so that the measured difference in FRC is divided by 3.

Structure (SMILES): FCC(F)(F)F [R 134a, 1,1,1,2-tetrafluoroethane]
- coefficient L1/L2 (ratio of blood-gas partition coefficients): approx. 4
